Measured values as given in PMC10485003, “Antibiotic hyper-resistance in a class I aminoacyl-tRNA synthetase with altered active site signature motif” (Nature Communications, 2023).
Values joined by “and” are separate entries in the source; they are usually repeats but may differ in a detail not shown here. Identical values can stand only once. Like-named read-outs stand apart in the source and are kept apart here.

Assays:
E. coli IleRS1 [1] = system: E. coli IleRS1; set-up: method as in earlier work; settings: aminoacylation, with tRNA; cited from earlier work
wt-HMGH PmIleRS1 = settings: amino acid activation step; ATP/PPi exchange assay; Ile varied; slow tight binding inhibitor; read-out: KI (MUP)Ile; cited from earlier work
E. coli IleRS1 [2] = system: E. coli IleRS1; set-up: method as in earlier work; settings: activation step, absence of tRNA; cited from earlier work
W130Q PmIleRS2 = experiment: ATP-PPi exchange assay, mupirocin inhibition of amino acid activation; type: biochemical, Priestia (Bacillus) megaterium; settings: for vo (initial enzyme velocity): Replica 1-3
Protocol: L-Ile and ATP concentrations ranged from 1/10 KM to 10 KM values. When measuring the KI towards one of the substrates, the other was held in saturation (concentrations at least 10 KM). The aliquots of the reaction mixture (1–2.5 μl) were quenched in 2 volumes of 500 mM NaOAc pH = 4.5, 0.1% SDS, and formed ^32P-ATP was separated from the remaining ^32P-PPi by thin-layer chromatography on Polygram CEL 300 PEI UV254 TLC plates (Macherey-Nagel, cat: 801063) using 750 mM KH2PO4 pH=3.5, 4 M urea buffer. Visualization and quantification of the signals was performed using a Typhoon Phosphoimager 5 (General Electric) and accompanying ImageQuant™ TL software (SV: 10.2). The kinetic constants were determined using a global fit option of the competitive inhibition model of GraphPad Prism 6 software (SV: 6.01). All experiments were performed in triplicates. The kcat was determined by dividing the maximal velocity, VM, with the used enzyme concentration.
Source data are provided as a Source Data file. Data are presented as the average value
± SD of three independent experiments. b) A 2Fo-Fc Fourier difference map of the W130Q-HVGH-PmIleRS2:Ile-AMS […]

IleRS2 = experiment: Mupirocin inhibition of IleRS2 compared with IleRS1; type: biochemical, bacteria; settings: IleRS1 strongly, IleRS2 modestly inhibited

## C/C(=C\C(=O)OCCCCCCCCC(=O)O)C[C@@H]1OC[C@H](C[C@@H]2O[C@H]2[C@@H](C)[C@H](C)O)[C@@H](O)[C@H]1O [mupirocin]
E. coli IleRS1 [1]
  Ki: 2.5 nM
wt-HMGH PmIleRS1
  Ki: 0.29 ± 0.02 nM
E. coli IleRS1 [2]
  Ki: 6 nM
W130Q PmIleRS2; c (mupirocin) = 1.0 μM, c (ATP) 5.0 mM, raw data for KI(MUP) towards ATP
  vo (initial enzyme velocity): 0.02357 mM/min and 0.02647 mM/min and 0.02323 mM/min
W130Q PmIleRS2; c (mupirocin) = 1.0 μM, c (ATP) 10.0 mM, raw data for KI(MUP) towards ATP
  vo (initial enzyme velocity): 0.0305 mM/min and 0.03243 mM/min and 0.02895 mM/min
W130Q PmIleRS2; c (mupirocin) = 1.0 μM, c (ATP) 15.0 mM, raw data for KI(MUP) towards ATP
  vo (initial enzyme velocity): 0.0343 mM/min and 0.0357 mM/min and 0.0344 mM/min
W130Q PmIleRS2; c (mupirocin) = 1.0 μM, c (ATP) 25.0 mM, raw data for KI(MUP) towards ATP
  vo (initial enzyme velocity): 0.03769 mM/min and 0.03939 mM/min and 0.0387 mM/min
W130Q PmIleRS2; c (mupirocin) = 1.0 μM, c (Ile) 10.0 μM, raw data for KI(MUP) towards Ile
  vo (initial enzyme velocity): 0.0192 mM/min
W130Q PmIleRS2; c (mupirocin) = 1.0 μM, c (Ile) 20.0 μM, raw data for KI(MUP) towards Ile
  vo (initial enzyme velocity): 0.02795 mM/min and 0.02585 mM/min and 0.02685 mM/min
W130Q PmIleRS2; c (mupirocin) = 1.0 μM, c (Ile) 40.0 μM, raw data for KI(MUP) towards Ile
  vo (initial enzyme velocity): 0.03537 mM/min and 0.0321 mM/min and 0.03467 mM/min
W130Q PmIleRS2; c (mupirocin) = 1.0 μM, c (Ile) 80.0 μM, raw data for KI(MUP) towards Ile
  vo (initial enzyme velocity): 0.04151 mM/min and 0.04237 mM/min and 0.04366 mM/min
W130Q PmIleRS2; c (mupirocin) = 1.0 μM, c (Ile) 120.0 μM, raw data for KI(MUP) towards Ile
  vo (initial enzyme velocity): 0.0461 mM/min and 0.04503 mM/min and 0.04686 mM/min
W130Q PmIleRS2; c (mupirocin) = 5.0 μM, c (ATP) 5.0 mM, raw data for KI(MUP) towards ATP
  vo (initial enzyme velocity): 0.0136 mM/min and 0.01356 mM/min and 0.01125 mM/min
W130Q PmIleRS2; c (mupirocin) = 5.0 μM, c (ATP) 10.0 mM, raw data for KI(MUP) towards ATP
  vo (initial enzyme velocity): 0.021 mM/min and 0.0203 mM/min and 0.0182 mM/min
W130Q PmIleRS2; c (mupirocin) = 5.0 μM, c (ATP) 15.0 mM, raw data for KI(MUP) towards ATP
  vo (initial enzyme velocity): 0.02537 mM/min and 0.0244 mM/min and 0.02261 mM/min
W130Q PmIleRS2; c (mupirocin) = 5.0 μM, c (ATP) 25.0 mM, raw data for KI(MUP) towards ATP
  vo (initial enzyme velocity): 0.02943 mM/min and 0.02877 mM/min and 0.02783 mM/min
W130Q PmIleRS2; c (mupirocin) = 5.0 μM, c (Ile) 10.0 μM, raw data for KI(MUP) towards Ile
  vo (initial enzyme velocity): 0.00903 mM/min and 0.00774 mM/min and 0.00698 mM/min
W130Q PmIleRS2; c (mupirocin) = 5.0 μM, c (Ile) 20.0 μM, raw data for KI(MUP) towards Ile
  vo (initial enzyme velocity): 0.01459 mM/min and 0.01343 mM/min and 0.013 mM/min
W130Q PmIleRS2; c (mupirocin) = 5.0 μM, c (Ile) 40.0 μM, raw data for KI(MUP) towards Ile
  vo (initial enzyme velocity): 0.0221 mM/min and 0.01963 mM/min and 0.02145 mM/min
W130Q PmIleRS2; c (mupirocin) = 5.0 μM, c (Ile) 80.0 μM, raw data for KI(MUP) towards Ile
  vo (initial enzyme velocity): 0.02978 mM/min and 0.02747 mM/min and 0.02888 mM/min
W130Q PmIleRS2; c (mupirocin) = 5.0 μM, c (Ile) 120.0 μM, raw data for KI(MUP) towards Ile
  vo (initial enzyme velocity): 0.03377 mM/min
W130Q PmIleRS2; c (mupirocin) = 10.0 μM, c (ATP) 5.0 mM, raw data for KI(MUP) towards ATP
  vo (initial enzyme velocity): 0.00715 mM/min and 0.00752 mM/min and 0.00698 mM/min
W130Q PmIleRS2; c (mupirocin) = 10.0 μM, c (ATP) 10.0 mM, raw data for KI(MUP) towards ATP
  vo (initial enzyme velocity): 0.01301 mM/min and 0.0137 mM/min and 0.0124 mM/min
W130Q PmIleRS2; c (mupirocin) = 10.0 μM, c (ATP) 15.0 mM, raw data for KI(MUP) towards ATP
  vo (initial enzyme velocity): 0.0168 mM/min and 0.01667 mM/min and 0.01548 mM/min
W130Q PmIleRS2; c (mupirocin) = 10.0 μM, c (ATP) 25.0 mM, raw data for KI(MUP) towards ATP
  vo (initial enzyme velocity): 0.02198 mM/min and 0.0226 mM/min and 0.02035 mM/min
W130Q PmIleRS2; c (mupirocin) = 10.0 μM, c (Ile) 20.0 μM, raw data for KI(MUP) towards Ile
  vo (initial enzyme velocity): 0.00596 mM/min and 0.0067 mM/min and 0.0071 mM/min
W130Q PmIleRS2; c (mupirocin) = 10.0 μM, c (Ile) 40.0 μM, raw data for KI(MUP) towards Ile
  vo (initial enzyme velocity): 0.01336 mM/min and 0.01164 mM/min and 0.01202 mM/min
W130Q PmIleRS2; c (mupirocin) = 10.0 μM, c (Ile) 80.0 μM, raw data for KI(MUP) towards Ile
  vo (initial enzyme velocity): 0.02022 mM/min and 0.01917 mM/min and 0.021 mM/min
W130Q PmIleRS2; c (mupirocin) = 10.0 μM, c (Ile) 120.0 μM, raw data for KI(MUP) towards Ile
  vo (initial enzyme velocity): 0.0257 mM/min and 0.02427 mM/min and 0.02578 mM/min
W130Q PmIleRS2; c (mupirocin) = 25.0 μM, c (ATP) 5.0 mM, raw data for KI(MUP) towards ATP
  vo (initial enzyme velocity): 0.00415 mM/min and 0.00472 mM/min and 0.00553 mM/min
W130Q PmIleRS2; c (mupirocin) = 25.0 μM, c (ATP) 10.0 mM, raw data for KI(MUP) towards ATP
  vo (initial enzyme velocity): 0.0064 mM/min and 0.00737 mM/min and 0.0088 mM/min
W130Q PmIleRS2; c (mupirocin) = 25.0 μM, c (ATP) 15.0 mM, raw data for KI(MUP) towards ATP
  vo (initial enzyme velocity): 0.01013 mM/min and 0.00993 mM/min and 0.01101 mM/min
W130Q PmIleRS2; c (mupirocin) = 25.0 μM, c (ATP) 25.0 mM, raw data for KI(MUP) towards ATP
  vo (initial enzyme velocity): 0.01337 mM/min and 0.01219 mM/min and 0.01445 mM/min
W130Q PmIleRS2; c (mupirocin) = 25.0 μM, c (Ile) 10.0 μM, raw data for KI(MUP) towards Ile
  vo (initial enzyme velocity): 0.0021 mM/min and 0.00205 mM/min and 0.00211 mM/min
W130Q PmIleRS2; c (mupirocin) = 25.0 μM, c (Ile) 20.0 μM, raw data for KI(MUP) towards Ile
  vo (initial enzyme velocity): 0.00338 mM/min and 0.00346 mM/min
W130Q PmIleRS2; c (mupirocin) = 25.0 μM, c (Ile) 40.0 μM, raw data for KI(MUP) towards Ile
  vo (initial enzyme velocity): 0.00807 mM/min and 0.00657 mM/min and 0.00667 mM/min
W130Q PmIleRS2; c (mupirocin) = 25.0 μM, c (Ile) 80.0 μM, raw data for KI(MUP) towards Ile
  vo (initial enzyme velocity): 0.012 mM/min and 0.01121 mM/min and 0.01201 mM/min
W130Q PmIleRS2; c (mupirocin) = 25.0 μM, c (Ile) 120.0 μM, raw data for KI(MUP) towards Ile
  vo (initial enzyme velocity): 0.01558 mM/min and 0.01519 mM/min and 0.0161 mM/min
W130Q PmIleRS2; kinetic analysis, Supplementary Fig. 8
  Ki for mupirocin compared with wild-type: remained the same
IleRS2
  difference in Ki between IleRS1 and IleRS2: 10^3−10^5 fold
